Reference: ChEMBL document CHEMBL6109109, “Fatty acid binding protein 5 inhibitors as novel anticancer agents against metastatic castration-resistant prostate cancer” (Bioorg Med Chem, 2025)

Experiments:
PC-3 [1] = assay: Cytotoxicity against human PC-3 cells assessed as reduction in cell viability measured after 72 hrs by MTT assay; format: functional, cell-based; details: PC-3, 72 h
[2] = Cytotoxicity against mouse RCap cells assessed as reduction in cell viability measured after 72 hrs by MTT assay; format: functional, cell-based
[3] = Cytotoxicity against human WI-38 cells assessed as reduction in cell viability measured after 72 hrs by MTT assay; format: toxicity, cell-based
PC-3 [4] = assay: Induction of apoptosis in human PC-3 cells assessed as viable cells at 15 uM measured after 72 hrs by Annexin V-FITC/propidium iodide staining based FACS analysis (reference value: 97.62%); format: functional; details: read-out: Activity
PC-3 [5] = assay: Induction of apoptosis in human PC-3 cells assessed as early apoptotic cells at 15 uM measured after 72 hrs by Annexin V-FITC/propidium iodide staining based FACS analysis (reference value: 0.54%); format: functional
PC-3 [6] = assay: Induction of apoptosis in human PC-3 cells assessed as late apoptotic cells at 15 uM measured after 72 hrs by Annexin V-FITC/propidium iodide staining based FACS analysis (reference value: 1.73%); format: functional
PC-3 [7] = assay: Induction of apoptosis in human PC-3 cells assessed as necrotic cells at 15 uM measured after 72 hrs by Annexin V-FITC/propidium iodide staining based FACS analysis (reference value: 0.11%); format: functional
[8] = Binding affinity to FABP5 (unknown origin); design: species or system Homo sapiens
PC-3 [9] = assay: Cytotoxicity against human PC-3 cells assessed as cell growth inhibition at 10 uM measured after 72 hrs by MTT assay relative to control; format: functional; details: read-out: GI
PC-3 [10] = assay: Cytotoxicity against human PC-3 cells assessed as cell growth inhibition at 0.00001 uM measured after 72 hrs by MTT assay relative to control; format: functional; details: dose 1e-05 µM, read-out: GI
PC-3 [11] = assay: Cytotoxicity against human PC-3 cells assessed as cell growth inhibition at 0.0001 uM measured after 72 hrs by MTT assay relative to control; format: functional; details: read-out: GI
PC-3 [12] = assay: Cytotoxicity against human PC-3 cells assessed as cell growth inhibition at 0.001 uM measured after 72 hrs by MTT assay relative to control; format: functional; details: read-out: GI
PC-3 [13] = assay: Cytotoxicity against human PC-3 cells assessed as cell growth inhibition at 0.01 uM measured after 72 hrs by MTT assay relative to control; format: functional; details: read-out: GI
PC-3 [14] = assay: Cytotoxicity against human PC-3 cells assessed as cell growth inhibition at 0.1 uM measured after 72 hrs by MTT assay relative to control; format: functional; details: read-out: GI
PC-3 [15] = assay: Cytotoxicity against human PC-3 cells assessed as cell growth inhibition at 1 uM measured after 72 hrs by MTT assay relative to control; format: functional; details: read-out: GI
[16] = Cytotoxicity against mouse RCaP cells assessed as cell growth inhibition at 10 uM measured after 72 hrs by MTT assay relative to control; format: functional; details: read-out: GI
[17] = Cytotoxicity against mouse RCaP cells assessed as cell growth inhibition at 0.00001 uM measured after 72 hrs by MTT assay relative to control; format: functional; details: dose 1e-05 µM, read-out: GI
[18] = Cytotoxicity against mouse RCaP cells assessed as cell growth inhibition at 0.0001 uM measured after 72 hrs by MTT assay relative to control; format: functional; details: read-out: GI
[19] = Cytotoxicity against mouse RCaP cells assessed as cell growth inhibition at 0.001 uM measured after 72 hrs by MTT assay relative to control; format: functional; details: read-out: GI
[20] = Cytotoxicity against mouse RCaP cells assessed as cell growth inhibition at 0.01 uM measured after 72 hrs by MTT assay relative to control; format: functional; details: read-out: GI
[21] = Cytotoxicity against mouse RCaP cells assessed as cell growth inhibition at 0.1 uM measured after 72 hrs by MTT assay relative to control; format: functional; details: read-out: GI
[22] = Cytotoxicity against mouse RCaP cells assessed as cell growth inhibition at 1 uM measured after 72 hrs by MTT assay relative to control; format: functional; details: read-out: GI

Row | Compound | IC50 (PC-3 [1]) | IC50 [2] | IC50 at 72 h [3] | Ki [8] | also measured
1 | O=C(O)[C@H]1[C@@H](c2ccccc2)[C@H](C(=O)Oc2cccc3ccccc23)[C@@H]1c1ccccc1 | 15.9 µM | 33.4 µM | 83.3 µM |  | viability at 15 µM (PC-3 [4]): 95.4%; Activity (PC-3 [5]): 1.22%; Activity (PC-3 [6]): 3.13%; Activity (PC-3 [7]): 0.21%
2 | O=C(O)[C@@H]1[C@@H](c2ccccc2)[C@H](C(=O)OCc2cccc3ccccc23)[C@H]1c1ccccc1 | 13.1 µM | 23.9 µM | 27.1 µM | 5.08 µM | 
3 | O=C1CCc2cc(-c3cccc(OC(=O)[C@H]4[C@@H](c5ccccc5)[C@@H](C(=O)O)[C@@H]4c4ccccc4)c3)ccc2N1 | 13.1 µM | 15.6 µM | 77 µM | 7.59 µM | 
4 | O=C(O)[C@H]1[C@H](c2ccccc2)[C@H](C(=O)Oc2cccc(-c3ccc4c(c3)OCCO4)c2)[C@H]1c1ccccc1 | 13.1 µM | 14.5 µM | 66.5 µM | 0.66 µM | 
5 | COc1ccccc1[C@H]1[C@H](C(=O)O)[C@H](c2ccccc2OC)[C@H]1C(=O)Oc1cc(-c2ccc3c(c2)OCO3)ccc1CC#N | 12.5 µM | 20.7 µM | 29.8 µM | 0.58 µM | 
6 | COc1ccccc1[C@H]1[C@H](C(=O)O)[C@H](c2ccccc2OC)[C@@H]1C(=O)Oc1cccc(-c2cccc3c2OCO3)c1 | 15.7 µM | 29 µM | 49 µM | 1.26 µM | 
7 | COc1ccccc1[C@H]1[C@H](C(=O)O)[C@H](c2ccccc2OC)[C@@H]1C(=O)Oc1cccc(-c2ccc(F)cc2)c1 | 14.6 µM | 19 µM | 57.5 µM | 1.77 µM | 
8 | COc1ccccc1[C@H]1[C@H](C(=O)O)[C@H](c2ccccc2OC)[C@H]1C(=O)Oc1cccc(-c2ccc3c(c2)OCCO3)c1 | 13 µM | 12.5 µM | 54.7 µM | 1.56 µM | 
9 | CC[C@@]1(O)C(=O)OCc2c1cc1n(c2=O)Cc2cc3c(CN(C)C)c(O)ccc3nc2-1 [TOPOTECAN] |  |  |  |  | inhibition of growth at 10 µM (PC-3 [9]): 69.2%; inhibition of growth at 10 pM (PC-3 [10]): -4.4%; inhibition of growth at 0.0001 µM (PC-3 [11]): -2.77%; inhibition of growth at 0.001 µM (PC-3 [12]): 1.13%; inhibition of growth at 0.01 µM (PC-3 [13]): 20.1%; inhibition of growth at 0.1 µM (PC-3 [14]): 55.9%; inhibition of growth at 1 µM (PC-3 [15]): 67.1%; inhibition of growth at 10 µM [16]: 89.6%; inhibition of growth at 10 pM [17]: -1.57%; inhibition of growth at 0.0001 µM [18]: -3.2%; inhibition of growth at 0.001 µM [19]: 0.1%; inhibition of growth at 0.01 µM [20]: 9.17%; inhibition of growth at 0.1 µM [21]: 66%; inhibition of growth at 1 µM [22]: 93.6%
